{"source": "patent US10253039B2", "about": "“Inhibitors of bacterial DNA gyrase with efficacy against gram-negative bacteria” (priority 2014, dated 2019)", "key": {"Morganella morganii": {"test_system": "Morganella morganii", "experiment": "MIC, microdilution in 96-well plates"}, "E. coli MG1655": {"test_system": "E. coli MG1655", "experiment": "MIC, 20-strain panel", "type": "cell-based", "details": "Escherichia coli, MG1655, E. coli MG1655; Table 7, separate set of experiments; read-out: MIC", "in_short": "(§1)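 After 16-18 h shaking incubation at 37 °C, MIC was read visually as the lowest concentration without turbidity. Compounds were 2-fold serially diluted in LB medium seeded with a 1:10000 inoculum, following the CLSI microdilution protocol.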"}, "[1]": {"test_system": "Klebsiella pneumoniae subsp. pneumoniae", "experiment": "MIC, 20-strain panel", "type": "cell-based", "details": "Klebsiella pneumoniae subsp. pneumoniae, Table 7, separate set of experiments, read-out: MIC", "in_short": "as §1"}, "E. coli JW5503 (deltolC)": {"test_system": "E. coli JW5503 (deltolC)", "experiment": "MIC, 20-strain panel", "type": "cell-based", "details": "Escherichia coli, E. coli JW5503 (deltolC); Table 7, separate set of experiments", "in_short": "as §1"}, "Bacillus subtilis 168": {"test_system": "Bacillus subtilis 168", "experiment": "MIC, 20-strain panel", "type": "cell-based", "details": "Table 7, separate set of experiments, read-out: MIC", "in_short": "as §1"}, "Enterococcus faecium": {"test_system": "Enterococcus faecium", "experiment": "MIC, 20-strain panel", "type": "cell-based", "details": "Table 7, separate set of experiments, read-out: MIC", "in_short": "as §1"}, "Streptococcus agalactiae": {"test_system": "Streptococcus agalactiae", "experiment": "MIC, 20-strain panel", "type": "cell-based", "details": "Table 7, separate set of experiments, read-out: MIC", "in_short": "as §1"}, "[2]": {"test_system": "Staphylococcus saprophyticus subsp. saprophyticus", "experiment": "MIC, 20-strain panel", "type": "cell-based", "details": "Staphylococcus saprophyticus subsp. saprophyticus, Table 7, separate set of experiments, read-out: MIC", "in_short": "as §1"}, "Streptococcus pyogenes": {"test_system": "Streptococcus pyogenes", "experiment": "MIC, 20-strain panel", "type": "cell-based", "details": "Table 7, separate set of experiments, read-out: MIC", "in_short": "as §1"}, "[3]": {"test_system": "Morganella morganii subsp. morganii", "experiment": "MIC, 20-strain panel", "type": "cell-based", "details": "Morganella morganii subsp. morganii; Table 7, separate set of experiments; read-out: MIC", "in_short": "as §1"}, "[4]": {"test_system": "Staphylococcus epidermidis", "experiment": "MIC, 20-strain panel", "type": "cell-based", "details": "Table 7, separate set of experiments, read-out: MIC", "in_short": "as §1"}, "[5]": {"test_system": "Salmonella enterica subsp. enterica typhimurium", "experiment": "MIC, 20-strain panel", "type": "cell-based", "details": "Salmonella enterica subsp. enterica typhimurium, Table 7, separate set of experiments", "in_short": "as §1"}, "Enterococcus faecalis": {"test_system": "Enterococcus faecalis", "experiment": "MIC, 20-strain panel", "type": "cell-based", "details": "Table 7, separate set of experiments", "in_short": "as §1"}, "Bacillus cereus": {"test_system": "Bacillus cereus", "experiment": "MIC, 20-strain panel", "type": "cell-based", "details": "Table 7, separate set of experiments, read-out: MIC", "in_short": "as §1"}, "[6]": {"test_system": "Staphylococcus aureus subsp. aureus", "experiment": "MIC, 20-strain panel", "type": "cell-based", "details": "Staphylococcus aureus subsp. aureus, Table 7, separate set of experiments, read-out: MIC", "in_short": "as §1"}, "Shigella flexneri": {"test_system": "Shigella flexneri", "experiment": "MIC, 20-strain panel", "type": "cell-based", "details": "Table 7, separate set of experiments", "in_short": "as §1"}, "Staphylococcus aureus": {"test_system": "Staphylococcus aureus", "experiment": "MIC, microdilution in 96-well plates"}, "[7]": {"test_system": "gyramide A resistant mutants of E. coli", "experiment": "MIC against gyramide A resistant mutants compared to parent strain", "details": "ratio to MIC of parent strain E. coli BW25113 ΔtolC", "method": "(§2) A microdilution method in 96-well plates was used and the MIC protocol established by the Clinical Laboratory Standards Institute was followed. From a growing subculture, a 1:10000 inoculum of each strain in Luria-Bertani media was prepared and aliquoted 100 μL in 4 columns of wells, except for the top row wells, which contained 200 μL of inoculum. […] The liquid in each of wells was mixed with a multi-channel pipet and 100 μL was transferred to the next well and mixed. The 2-fold dilution was continued down the 96-well plate until 100 μL was left, which was discarded. The plates were incubated at 37° C. with shaking for 16-18 hours. The MIC was determined as the lowest concentration that inhibited growth and had no turbidity by visual inspection."}, "[8]": {"test_system": "E. coli BW25113 ΔtolC gyrR isolate GyrA Pro35Thr", "experiment": "MIC against gyramide-resistant mutant", "details": "Escherichia coli, BW25113", "method": "as §2"}, "[9]": {"test_system": "mutant E. coli (with a drug pump knock out)", "experiment": "Killing of mutant E. coli", "type": "cell-based, Escherichia coli"}, "[10]": {"test_system": "E. coli BW25113 ΔtolC gyrR isolate GyrA His45Tyr", "experiment": "MIC against gyramide-resistant mutant", "details": "Escherichia coli, BW25113", "method": "as §2"}, "[11]": {"molecular_target": "T1, GyrBAfus:20-20 bp DNA complex (Staphylococcus aureus, UniProt P0A0K8+P20831)", "T1 construct": "The C-terminal end of the B subunit was connected to the N-terminal end of the A subunit", "T1 sequence (P0A0K8 410-543)": "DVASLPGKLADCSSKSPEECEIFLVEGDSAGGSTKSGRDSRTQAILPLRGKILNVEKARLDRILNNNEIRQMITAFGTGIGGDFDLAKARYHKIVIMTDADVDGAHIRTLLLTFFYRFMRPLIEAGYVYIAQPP", "T1 sequence (P0A0K8 580-644)": "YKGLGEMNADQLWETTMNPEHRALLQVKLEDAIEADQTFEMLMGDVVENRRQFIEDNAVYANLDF", "T1 sequence (P20831 2-491)": "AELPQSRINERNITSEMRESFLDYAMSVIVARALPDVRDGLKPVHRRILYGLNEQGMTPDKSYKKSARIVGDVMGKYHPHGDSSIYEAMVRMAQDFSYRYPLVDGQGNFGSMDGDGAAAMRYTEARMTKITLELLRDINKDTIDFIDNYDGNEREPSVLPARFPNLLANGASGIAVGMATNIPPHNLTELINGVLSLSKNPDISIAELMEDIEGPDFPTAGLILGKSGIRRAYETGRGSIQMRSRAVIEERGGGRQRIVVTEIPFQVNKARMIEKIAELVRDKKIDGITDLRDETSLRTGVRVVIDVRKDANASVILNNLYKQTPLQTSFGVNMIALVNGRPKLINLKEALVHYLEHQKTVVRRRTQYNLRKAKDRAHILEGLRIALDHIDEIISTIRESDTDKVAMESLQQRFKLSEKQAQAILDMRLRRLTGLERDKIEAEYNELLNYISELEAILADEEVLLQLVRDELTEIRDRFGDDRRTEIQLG", "experiment": "1H NMR binding study, titration", "details": "titrating 1:1 GyrBAfus:20-20 bp DNA into 50 μM compound"}, "[12]": {"test_system": "E. coli BW25113 ΔtolC gyrR isolate GyrA Phe96Leu", "experiment": "MIC against gyramide-resistant mutant", "details": "Escherichia coli, BW25113", "method": "as §2"}, "Vibrio cholera": {"test_system": "Vibrio cholera", "experiment": "MIC, microdilution in 96-well plates", "details": "Vibrio cholerae"}, "Pseudomonas aeruginosa": {"test_system": "Pseudomonas aeruginosa", "experiment": "MIC, microdilution in 96-well plates", "type": "cell-based", "details": "read-out: MIC", "in_short": "as §1"}, "Acinetobacter baumannii": {"test_system": "Acinetobacter baumannii", "experiment": "MIC, microdilution in 96-well plates", "type": "cell-based", "details": "read-out: MIC", "in_short": "as §1"}, "Enterobacter aerogenes": {"test_system": "Enterobacter aerogenes", "experiment": "MIC, microdilution in 96-well plates", "type": "cell-based", "details": "Klebsiella aerogenes, Enterobacter aerogenes, read-out: MIC", "in_short": "as §1"}, "E. coli BW25113": {"test_system": "E. coli BW25113", "experiment": "MIC, microdilution in 96-well plates", "type": "cell-based", "details": "Escherichia coli, BW25113, E. coli BW25113, read-out: MIC", "in_short": "as §1"}, "Edwardsiella tarda": {"test_system": "Edwardsiella tarda", "experiment": "MIC, microdilution in 96-well plates", "type": "cell-based", "details": "read-out: MIC", "in_short": "as §1"}, "[13]": {"test_system": "E. coli BW25113 ΔtolC gyrR isolate GyrA Ser97Pro", "experiment": "MIC against gyramide-resistant mutant", "details": "Escherichia coli, BW25113", "method": "as §2"}, "[14]": {"test_system": "E. coli BW25113 ΔtolC cipR isolate GyrA Ser83Leu", "experiment": "MIC against ciprofloxacin-resistant mutant", "details": "Escherichia coli, BW25113", "method": "as §2"}, "[15]": {"details": "Table 7, separate set of experiments"}}, "note": "Read-outs that look alike come from different tables or passages of the source.", "data": [{"smiles": "N#Cc1cccc(S(=O)(=O)N[C@@H]2CCN(Cc3ccc(-c4ccccc4)cc3)C2)c1", "note": "[Gyramide C2, gyramide C2]", "values": [{"measurement": "MIC", "setting": "Morganella morganii", "result": "> 640", "unit": "µM"}, {"measurement": "MIC", "setting": "Morganella morganii; without PAβN", "result": ">640", "unit": "µM"}, {"measurement": "MIC", "setting": "E. coli MG1655", "result": 16, "unit": "µg/mL"}, {"measurement": "MIC", "setting": "[1]", "result": "> 16", "unit": "µg/mL"}, {"measurement": "MIC", "setting": "E. coli JW5503 (deltolC)", "result": 0.015, "unit": "µg/mL"}, {"measurement": "MIC", "setting": "Bacillus subtilis 168", "result": "> 16", "unit": "µg/mL"}, {"measurement": "MIC", "setting": "Enterococcus faecium", "result": "> 16", "unit": "µg/mL"}, {"measurement": "MIC", "setting": "Streptococcus agalactiae", "result": "> 16", "unit": "µg/mL"}, {"measurement": "MIC", "setting": "[2]", "result": "> 16", "unit": "µg/mL"}, {"measurement": "MIC", "setting": "Streptococcus pyogenes", "result": "> 16", "unit": "µg/mL"}, {"measurement": "MIC", "setting": "[3]", "result": "> 16", "unit": "µg/mL"}, {"measurement": "MIC", "setting": "[4]", "result": "> 16", "unit": "µg/mL"}, {"measurement": "MIC", "setting": "[5]", "result": 2, "unit": "µg/mL"}, {"measurement": "MIC", "setting": "Enterococcus faecalis", "result": "> 16", "unit": "µg/mL"}, {"measurement": "MIC", "setting": "Bacillus cereus", "result": "> 16", "unit": "µg/mL"}, {"measurement": "MIC", "setting": "[6]", "result": "> 16", "unit": "µg/mL"}, {"measurement": "MIC", "setting": "Shigella flexneri", "result": 8, "unit": "µg/mL"}, {"measurement": "MIC", "setting": "Staphylococcus aureus; with PAβN (60 μM)", "result": 40, "unit": "µM"}, {"measurement": "MIC", "setting": "Staphylococcus aureus; without PAβN", "result": 160, "unit": "µM"}, {"measurement": "MIC against gyramide A resistant mutants compared to the parent strain", "setting": "[7]", "result": "> 200", "unit": "times"}, {"measurement": "MIC", "setting": "[8]", "result": 25.6, "unit": "µM"}, {"measurement": "concentration observed to kill mutant E. coli", "setting": "[9]", "result": 300, "unit": "nM"}, {"measurement": "MIC", "setting": "[10]", "result": "> 25.6", "unit": "µM"}, {"measurement": "Kd for the association", "setting": "[11]", "result": "< 50", "unit": "µM"}, {"measurement": "MIC", "setting": "[12]", "result": 25.6, "unit": "µM"}, {"measurement": "MIC", "setting": "Vibrio cholera; with PAβN (60 μM)", "result": 40, "unit": "µM"}, {"measurement": "MIC", "setting": "Vibrio cholera; without PAβN", "result": 160, "unit": "µM"}, {"measurement": "MIC", "setting": "Pseudomonas aeruginosa; [15]", "result": "> 16", "unit": "µg/mL"}, {"measurement": "MIC", "setting": "Pseudomonas aeruginosa; with PAβN (60 μM)", "result": 20, "unit": "µM"}, {"measurement": "MIC", "setting": "Pseudomonas aeruginosa; without PAβN", "result": "> 640", "unit": "µM"}, {"measurement": "MIC", "setting": "Acinetobacter baumannii; [15]", "result": "> 16", "unit": "µg/mL"}, {"measurement": "MIC", "setting": "Acinetobacter baumannii; with PAβN (60 μM)", "result": 40, "unit": "µM"}, {"measurement": "MIC", "setting": "Acinetobacter baumannii; without PAβN", "result": "> 640", "unit": "µM"}, {"measurement": "MIC", "setting": "Enterobacter aerogenes; [15]", "result": "> 16", "unit": "µg/mL"}, {"measurement": "MIC", "setting": "Enterobacter aerogenes; with PAβN (60 μM)", "result": 10, "unit": "µM"}, {"measurement": "MIC", "setting": "Enterobacter aerogenes; without PAβN", "result": "> 640", "unit": "µM"}, {"measurement": "MIC", "setting": "E. coli BW25113; [15]", "result": 16, "unit": "µg/mL"}, {"measurement": "MIC", "setting": "E. coli BW25113; without PAβN", "result": 20, "unit": "µM"}, {"measurement": "MIC", "setting": "Edwardsiella tarda; [15]", "result": 16, "unit": "µg/mL"}, {"measurement": "MIC", "setting": "Edwardsiella tarda; with PAβN (60 μM)", "result": 20, "unit": "µM"}, {"measurement": "MIC", "setting": "Edwardsiella tarda; without PAβN", "result": "> 640", "unit": "µM"}, {"measurement": "MIC", "setting": "[13]", "result": "> 25.6", "unit": "µM"}, {"measurement": "MIC", "setting": "[14]", "result": 0.4, "unit": "µM"}]}]}
